Data published in US10329542B2, “HBV RNAse H purification and enzyme inhibitors” (Saint Louis University, priority 2012, dated 2019).
Read-outs that look alike come from different tables or passages of the source.

What was measured:
HBV genotype H RNAseH = test: Oligonucleotide-directed RNAseH cleavage assay, HBV genotype H; format: biochemical, Hepatitis B virus; conditions: for Residual activity at 10 uM, Genotype H: ± standard deviation, 3 to 7 replicates; for Residual activity at 10 uM, Genotype H / Inhibition of HBV genotype H RNAseH: 10 μM; for Inhibition of HBV genotype H RNAseH: below threshold of irrelevant controls
Summary of the method: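 HBV RNAseH protein extracts mixed with internally ^32P-labeled RNA plus excess complementary DNA oligonucleotide (inverse-complement as negative control) in 65 mM Tris pH 8.0, 190 mM NaCl, 5 mM MgCl2, 1% DMSO; 90 min at 42° C. Cleavage products resolved by SDS-PAGE, quantified by autoradiography; IC50 by non-linear regression.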

[1] = molecular target: T1, HBV genotype D RNAseH (HRHPL) (Hepatitis B virus genotype D subtype ayw, UniProt P03156, INS679M); test: Oligonucleotide-directed RNAseH cleavage assay, HBV genotype D; format: biochemical; conditions: for Residual activity at 10 uM, Genotype D: ± standard deviation, 3 to 7 replicates; for Activity vs. HBV Biochemical vs. gtD: class by concentration giving inhibition (10, 20, 60 μM); for Residual activity at 10 uM, Genotype D / Inhibition of HBV genotype D RNAseH: 10 μM; for remaining activity at 10 µM: read-out: Residual activity at 10 uM, Genotype D; for IC50: read-out: IC50 against HBV genotype D RNAseH
T1 construct: HRHPL contains HBV genotype D (Genbank V01460) polymerase residues 684-845; made in house; host or cells: E. coli BL21 codon+

[2] = molecular target: T2, chimeric HBV:HIV RNAseH HHC1 (Hepatitis B virus genotype D subtype ayw, UniProt P03156, DELINS787-795[…]/INS679M); test: Oligonucleotide-directed RNAseH cleavage assay, chimeric HHC1; format: biochemical; conditions: 10 μM; ± standard deviation, 3 to 7 replicates
T2 construct: HHC1 is an HRHPL derivative; made in house; host or cells: E. coli BL21 codon+
Summary of the method: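 Bacterially expressed C-terminal His-tagged HHC1 (HRHPL, HBV genotype D pol 684-845, with residues 800-808 swapped for HIV RNAseH helix D) extract mixed with internally 32P-labeled DRF+ RNA and oligonucleotide D2507- (D2526+ negative control), 42 °C, 90 min. Products resolved by 12% SDS-PAGE, autoradiographed and quantified; compounds added in DMSO, DMSO vehicle control.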

HBV = HBV genomic replication assays (Table 2); format: cell-based, Hepatitis B virus; conditions: class by active concentration
Summary of the method: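 Huh7 cells transfected with HBV plasmid received compound at 10 or 50 μM, refreshed every 1-2 days. Core-particle DNA isolated 4-5 days post-transfection was analysed by Southern blot, with or without RNaseH. For the screen, replicating cells got 60, 20 or 6.7 μM, refreshed days 1-2, and plus-strand DNA was quantified on day 3 by cross-gap TaqMan PCR.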

T1 sequence (P03156 680-832, added parts left off, stated change not applied): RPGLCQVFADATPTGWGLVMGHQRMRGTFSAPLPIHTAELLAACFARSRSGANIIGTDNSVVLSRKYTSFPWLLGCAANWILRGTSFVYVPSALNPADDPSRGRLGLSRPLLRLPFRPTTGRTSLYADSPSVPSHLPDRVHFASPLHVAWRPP
T2 sequence (P03156 680-786, added parts left off, stated change not applied): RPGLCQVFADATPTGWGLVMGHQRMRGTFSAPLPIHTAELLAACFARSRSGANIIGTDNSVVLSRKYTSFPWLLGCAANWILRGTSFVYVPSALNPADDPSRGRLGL

## CCOc1ccc(-c2c3cc(O)c(=O)cc-3oc3cc(O)c(O)cc23)cc1 [Compound 30]
HBV genotype H RNAseH
  Residual activity at 10 uM, Genotype H: 37 ± 8 Percent DMSO control
[1]
  Residual activity at 10 uM, Genotype D: 23 ± 6 Percent DMSO control
  Activity vs. HBV Biochemical vs. gtD: +++ (+++ inhibition at 10 μM)
[2]
  Residual activity at 10 uM, HHC1: 58 ± 12 Percent DMSO control
HBV
  Activity vs. HBV Genomic Replication: + (+, activity detectable at >10 μM)

## Cc1nnc(C(=O)NC(C)(C)c2nc(C(=O)NCc3ccc(F)cc3)c(O)c(=O)n2C)o1 [Compound 11, Raltegravir, reference compound]
HBV genotype H RNAseH
  Residual activity at 10 uM, Genotype H: 63 ± 21 Percent DMSO control
[1]
  Inhibition of HBV genotype D RNAseH: inhibited the HBV RNAseH
  Activity vs. HBV Biochemical vs. gtD: ++ (++ inhibition at 20 μM)
  remaining activity at 10 µM: 29 ± 18%
HBV
  Activity vs. HBV Genomic Replication: − (− no activity at 60 μM)

## CC(C)c1ccc(O)c(=O)c(O)c1 [Compound 46, beta-thujaplicinol]
HBV genotype H RNAseH; read-out: IC50 against HBV genotype H RNAseH
  IC50: 2.3 ± 1.7 µM
[1]
  Difference between IC50 against HIV-1 RNAseH and HBV RNAseH: ~10 fold
  Activity vs. HBV Biochemical vs. gtD: +++ (+++ inhibition at 10 μM)
[1]; listed as β-thujaplicinol
  IC50: 6 µM
[1]; listed as βTJ
  IC50: 5.9 ± 0.7 µM
HBV
  Activity vs. HBV Genomic Replication: ++ (++, clear activity at <10 μM)

## Cc1cc(=O)oc2cc(O)c(O)cc12 [Compound 34]
HBV genotype H RNAseH
  Inhibition of HBV genotype H RNAseH: inhibited
  Residual activity at 10 uM, Genotype H: 33 ± 12 Percent DMSO control
[1]
  Residual activity at 10 uM, Genotype D: 30 ± 15 Percent DMSO control
  Activity vs. HBV Biochemical vs. gtD: ++ (++ inhibition at 20 μM)
[2]
  Residual activity at 10 uM, HHC1: 39 ± 4 Percent DMSO control
HBV
  Activity vs. HBV Genomic Replication: − (− no activity at 60 μM)

## COc1ccc2ccccc2c1C=NNC(=O)c1cc(O)c(O)c(O)c1 [Compound 14]
HBV genotype H RNAseH
  Inhibition of HBV genotype H RNAseH: inhibited
  Residual activity at 10 uM, Genotype H: 27 ± 13 Percent DMSO control
[1]
  Residual activity at 10 uM, Genotype D: 46 ± 20 Percent DMSO control
  Activity vs. HBV Biochemical vs. gtD: − (− no inhibition at 60 μM)
[2]
  Residual activity at 10 uM, HHC1: 72 ± 2 Percent DMSO control
HBV
  Activity vs. HBV Genomic Replication: − (− no activity at 60 μM)

## [N-]=[N+]=NCc1cccc(C(=O)CC(=O)C(=O)O)c1 [Compound 40]
HBV genotype H RNAseH
  Inhibition of HBV genotype H RNAseH: inhibited
  Residual activity at 10 uM, Genotype H: 22 ± 2 Percent DMSO control
[1]
  Residual activity at 10 uM, Genotype D: 21 ± 16 Percent DMSO control
  Activity vs. HBV Biochemical vs. gtD: +++ (+++ inhibition at 10 μM)
[2]
  Residual activity at 10 uM, HHC1: 44 ± 10 Percent DMSO control
HBV
  Activity vs. HBV Genomic Replication: − (− no activity at 60 μM)

## Cc1c2cc(O)c(=O)cc-2oc2cc(O)c(O)cc12 [Compound 8]
HBV genotype H RNAseH
  Residual activity at 10 uM, Genotype H: 74 ± 21 Percent DMSO control
[1]
  Residual activity at 10 uM, Genotype D: 33 ± 17 Percent DMSO control
  Activity vs. HBV Biochemical vs. gtD: ++ (++ inhibition at 20 μM)
[1]; below 5 μM
  Inhibition: ineffective
[1]; between 10 and 30 μM
  Inhibition: 40-85%
[2]
  Residual activity at 10 uM, HHC1: 55 ± 18 Percent DMSO control
HBV
  Activity vs. HBV Genomic Replication: − (− no activity at 60 μM)

## NCc1ccc(-c2ccc(Cc3cc(=O)n(O)c4ncccc34)cc2)cc1 [Compound 12, napthyridinone]
HBV genotype H RNAseH
  Inhibition of HBV genotype H RNAseH: inhibited
  Residual activity at 10 uM, Genotype H: 17 ± 6 Percent DMSO control
[1]
  Residual activity at 10 uM, Genotype D: 28 ± 12 Percent DMSO control
  Activity vs. HBV Biochemical vs. gtD: +++ (+++ inhibition at 10 μM)
  IC50: 2.5 µM
[2]
  Residual activity at 10 uM, HHC1: 32 ± 8 Percent DMSO control
HBV
  Activity vs. HBV Genomic Replication: ++ (++, clear activity at <10 μM)

## COc1cc2c(cc1Cc1cccc(Cl)c1F)c(=O)c(C(=O)O)cn2[C@H](CO)C(C)C [Compound 10, Elvitegravir, reference compound]
HBV genotype H RNAseH
  Residual activity at 10 uM, Genotype H: 66 ± 21 Percent DMSO control
[1]
  Inhibition of HBV genotype D RNAseH: inhibited the HBV RNAseH
  Activity vs. HBV Biochemical vs. gtD: ++ (++ inhibition at 20 μM)
  remaining activity at 10 µM: 30 ± 8%
HBV
  Activity vs. HBV Genomic Replication: − (− no activity at 60 μM)
